Experimental findings from a melting point compilation (Tetko et al.; mined from patent text by program, amines drawn as free bases though some values may be those of a salt) are described below.

As a reminder, the melting point is the temperature of the solid-liquid transition. Regarding `CC1(C)CS(=O)(=O)c2ccccc2C1c1cncnc1S(C)(=O)=O` (stereo unspecified), the melting point was 202 to 208 °C.

Regarding `O=C(NCc1ccccc1)NOCC(O)CN1CCCCC1` (stereo unspecified), the melting point was in the range of 100 to 101 °C.

In turn, `CCOc1ccccc1OCC(O)CNC(C)=CC(=O)c1cccnc1` (single isomer, unassigned; (-)) returned a melting point of 94 °C.

Compound `Cc1cccc(C)c1N(CCCCCCc1cccnc1)C(=O)C(C)N1C(=O)c2ccccc2C1=O` (stereo unspecified) yielded a melting point of 113 to 115 °C.

For the compound `CCN(CC)C(N)=C(C#N)C(N)=S`, the melting point lay in the range of 151 to 152 °C.

The compound `CNC(=O)C(=NOC)c1cc(C)c(C)cc1C(ON)=C(C)c1cccc(C(F)(F)F)c1` came in with a melting point of 129 to 134 °C.

Turning to `COc1ccc(C(=C/C=C/C(=O)NCCCCc2cncc3ccccc23)c2ccc(OC)cc2)cc1`, the melting point lay within 91 to 93 °C.

Take `CC(=O)n1c(=NC(F)(F)F)oc2ccccc21`: the melting point lay in the range of 140 to 143 °C.

In turn, `Cc1c(Br)c(=O)c(-c2ccc(Cl)cc2)c(C)n1C` displayed a melting point of 264 to 266 °C.

With `CN1C(=O)CC[C@]2(C)c3ccc(-c4cccnc4)cc3CC[C@@H]12`, the melting point amounted to 135 °C.

`O=C(O)CCCCCCCCCCc1ccco1`: the melting point lay within 40 to 41 °C.

`C[C@@H]1N=C(c2ccccc2Cl)c2cc(I)sc2NC1=O` returned a melting point of 235 to 237 °C.

On to `COc1cc2c(Nc3ccc(Cl)cc3F)ncnc2cc1OCCCOc1ccncc1`, for which the melting point lay in the range of 138 to 140 °C.

In turn, `Cc1nc(N2CCN(Cc3ccccc3)C2=O)sc1C(=O)NCc1ccccc1` gave a melting point of 169 to 171 °C.

`COc1nc(O)cc(CCl)n1` came in with a melting point of 154 to 155 °C.

As for `CC(C)(C)OC(=O)CN1CC(c2ccco2)SCC(N)C1=O` (stereo unspecified), the melting point lay within 90 to 92 °C.

For the compound `O=[N+]([O-])c1cccc2c1ccn2S(=O)(=O)c1cccc2ccccc12`, the melting point lay within 156 to 157 °C.

Turning to `NC(=O)c1ccc(C(=O)C=C(c2cc(Cl)cc(Cl)c2)C(F)(F)F)cc1`, the melting point fell in the range of 156 to 160 °C.

`CN(C)C(=O)Cc1ccccc1Nc1c(F)c(F)cc(F)c1F`: the melting point was 109 to 110 °C.

Regarding `CCCCc1oc2ccccc2c1C(=O)c1cc(Br)c(O[C@H](Cc2ccccc2)C(=O)O)c(Br)c1`, the melting point fell in the range of 56 to 58 °C.

As to `COC(=O)c1cc(-c2ccc(F)c(C)c2)nn(CC(C)C)c1=O`, the melting point fell in the range of 71.4 to 73.8 °C.

In turn, `CCN(CC1CCCC1)c1nc2c(cc1CN(Cc1cc(C(F)(F)F)cc(C(F)(F)F)c1)C(N)=O)c(C)nn2C` came in with a melting point of 139 °C.

Compound `N#Cc1ccc(-c2nccc3[nH]c(=O)ccc23)cc1` came in with a melting point greater than 300 °C.

Compound `CCn1c2ccccc2c2cc(C=C(c3ccccc3)c3ccccc3)ccc21` came in with a melting point of 145 to 146 °C.

On to `CCC12CCC3=C(CCc4cc(OC(C)=O)ccc43)C1CCC2=O` (stereo unspecified), for which the melting point lay within 132 to 134 °C.

In the case of `Nc1ccc(S(=O)(=O)c2cc(Br)nc(N3CCNCC3)c2)cc1`, the melting point was 173 to 175 °C.

On to `CCOC(=O)c1cn(-c2ccncc2F)c2nc(Cl)c(F)cc2c1=O`, for which the melting point worked out at 226 °C.

For `CCOC(=O)c1ncc2[nH]c3cccc(Oc4ccccc4)c3c2c1COC`, the melting point lay within 174 to 176 °C.

Regarding `Cc1nc2cccc(Cn3ccc4cc(Cl)ccc43)c2c(=O)[nH]1`, the melting point fell in the range of 251 to 252 °C.

In the case of `CC(=O)OC1CSC(Oc2ccc(S(C)(=O)=O)cc2)C(OC(C)=O)C1OC(C)=O` (stereo unspecified), the melting point stood at 168 °C.

As to `O=C(NCCc1ccccn1)c1ccc2cc(C(=O)O)[nH]c2c1`, the melting point fell in the range of 198 to 199 °C.

`O=C(O)CCC(Cc1ccccc1Cl)(C(=O)C=Cc1ccc(Cl)cc1)c1ccccc1` (stereo unspecified) registered a melting point of 184 to 187 °C.

As to `CN1C(=O)C(=Cc2cc(O)c(O)c([N+](=O)[O-])c2)SC1=S`, the melting point lay in the range of 274 to 276 °C.

Turning to `OCCCc1cccc2ccncc12`, the melting point is 66 to 69 °C.

Regarding `CCCCCOc1ccc2c(c1)C=C(CN)CO2`, the melting point came to 126 °C.

Consider `Cn1c2ccccc2c2cc(C(=O)C(C)(C)N3CCOCC3)ccc21`, for which the melting point was 164 to 166 °C.

`COc1ccc(CCC(C)(C)NCC(O)c2cccc(Cl)c2)cc1` (stereo unspecified) displayed a melting point of 50 to 53 °C.

`CCCc1c(O)c(F)cc(C(C)=O)c1O` gave a melting point of 129 to 130 °C.

In turn, `O=C(O)C=CC(=O)c1ccc(F)cc1` gave a melting point of 130 to 132 °C.

In turn, `CN1C(=O)CSC=C1c1ccccc1` registered a melting point of 95 to 97 °C.

As for `Cc1cc(OC2CCN(CCNC(=O)c3ccc(S(C)(=O)=O)cc3)CC2)ccc1Cl`, the melting point was 123 to 124 °C.

The compound `O=C(O)C(Cc1ccccc1)C(O)CCCCCOCc1ccccc1` (stereo unspecified) came in with a melting point of 66 to 67 °C.

The compound `OC(c1ccccc1)c1nc(-c2ccncc2)cs1` (stereo unspecified) displayed a melting point of 146 to 147 °C.

As for `CC(C)(C)N=NC1(C(N)=O)CCCCC1`, the melting point was in the range of 86 to 92 °C.

Compound `N#Cc1c(Cl)cc(OCc2ccncc2)cc1OC(C(=O)O)c1ccccc1Cl` (racemic) displayed a melting point of 165 to 167 °C.

As for `Cc1[nH]c(C=O)c(C)c1CNC(=O)C(F)(F)F`, the melting point was determined as 200 °C.

On to `CC(C)(C)c1ccc(C(=O)N[C@H]2CC[C@H](CCN3CCN(c4nccc5c4OCC5)CC3)CC2)cc1`, for which the melting point was 183 °C.

`Cc1cnc2c(c1)CCCC2NC(=S)NC(=O)c1ccccc1` (stereo unspecified) returned a melting point of 168 °C.

Compound `O=C(Cc1cccc2ccccc12)Nc1cc([C@H]2C[C@@H](NC(=O)c3ccc4ccccc4n3)C2)[nH]n1` returned a melting point of 200 °C.

As for `COC(=O)c1ccc(Cl)c(Cn2nc(C(F)(F)F)n(C)c2=O)c1Cl`, the melting point was determined as 109 °C.

Turning to `N#Cc1ccc2[nH]c3c(c2c1)CC(NC(=O)OCc1ccccc1)CC3` (stereo unspecified), the melting point was 141 to 143 °C.

For the compound `C=CCNC(=O)N1CC(Oc2ccc(Br)cc2)C1`, the melting point is 100 to 101 °C.

`CON=C1CSc2cccc(Cl)c2CN1` registered a melting point of 120 to 121 °C.

In turn, `O=C1Nc2ccccc2C(c2ccccc2)N1C1CCN(CC2CC2)CC1` (stereo unspecified) registered a melting point of 276 to 281 °C.

The compound `CCn1cc(C(=O)O)c(=O)c2cc(F)c(N3CCNC(c4ccsc4)C3)cc21` (stereo unspecified) yielded a melting point of 198 to 200 °C.

`CCCCCCC(O)CCCCCCCCCCC(=O)NCCNCCO` (stereo unspecified) displayed a melting point of 102 °C.

In turn, `CCOC(=O)c1ccc2c(c1)C(=O)C(=O)N2` gave a melting point of 205 to 206 °C.

The compound `CCO[C@@H](Cc1ccc(O)cc1)C(=O)O` displayed a melting point of 105 °C.

`COC1(c2cc(F)cc(Sc3ccc(C(=NO)c4nccs4)cc3)c2)CCOCC1` registered a melting point of 153 to 154 °C.

For `CC(F)c1ncnc(NCc2ccc(C(C)(C)C)cc2)c1I` (stereo unspecified), the melting point fell in the range of 114 to 115 °C.

`Cc1ccc(N2CCN(Cc3ccc4c(c3)OCC(=O)N4)CC2)cc1` gave a melting point of 208 to 210 °C.

In turn, `CCS(=O)(=O)Nc1cnc(N2CCC(C(=O)O)CC2)nc1NCc1ccccc1` returned a melting point of 205 °C.

In the case of `NC(=O)c1sc2nc(N3CCC(NCC(O)c4ccccn4)CC3)cc(C(F)(F)F)c2c1N` (stereo unspecified), the melting point was in the range of 165 to 167 °C.

Compound `CCOC(=O)c1nc(O)sc1C(=O)CBr` returned a melting point of 105 to 108 °C.

On to `O[C@H]1CC[C@H](N(Cc2ccccc2)Cc2ccccc2)CC1`, for which the melting point was in the range of 97 to 99 °C.

For the compound `O=c1[nH]c2ccc(C(F)(F)F)cc2c(-c2cc(Cl)ccc2O)c1CO`, the melting point was greater than 250 °C.
